pEC50: −log10 of the molar value.
Test system: HEK293T cells carrying the ATF4 luciferase reporter
Test: ATF4-Luc assay, in vitro model of Vanishing Cell White Matter Disease (VWMD)
Type: cell-based
Conditions: Homo sapiens, HEK-293T, 1 μg/mL tunicamycin, 7 hours, One Glo luminescence
Method: In order to test exemplary compounds of the invention in a cellular context, a stable VWMD cell line was first constructed. The ATF4 reporter was prepared by fusing the human full-length ATF4 5′-UTR (NCBI Accession No. BC022088.2) in front of the firefly luciferase (FLuc) coding sequence lacking the initiator methionine as described in Sidrauski et al (eLife 2013). The construct was used to produce recombinant retroviruses using standard methods and the resulting viral supernatant was used to transduce HEK293T cells, which were then subsequently selected with puromycin to generate a stable cell line.
HEK293T cells carrying the ATF4 luciferase reporter were plated on polylysine coated 384-well plates (Greiner Bio-one) at 30,000 cells per well. Cells were treated the next day with 1 μg/mL tunicamycin and 200 nM of a compound of Formula (I) for 7 hours. Luminescence was measured using One Glo (Promega) as specified by the manufacturer. Cells were maintained in DMEM with L-glutamine supplemented with 10% heat-inactivated FBS (Gibco) and Antibiotic-Antimycotic solution (Gibco).
Table 2 below summarizes the EC50 data obtained using the ATF4-Luc assay for exemplary compounds of the invention.

SMILES	pEC50
CCc1ccnc(C(=O)NC23CC(NC(=O)COc4ccc(Cl)c(Cl)c4)(C2)C3)c1 [Compound 696, N-{3-[2-(3,4-dichlorophenoxy)acetamido]bicyclo[1.1.1]pentan-1-yl}-4-ethylpyridine-2-carboxamide]	6.60 to 7.30
O=C(COc1ccc(Cl)c(F)c1)NC12CC(NC(=O)c3ccc(C4=CCOCC4)nc3)(C1)C2 [Compound 155, N-{3-[2-(4-chloro-3-fluorophenoxy)acetamido]bicyclo[1.1.1]pentan-1-yl}-6-(3,6-dihydro-2H-pyran-4-yl)pyridine-3-carboxamide]	5.70 to 6.00
O=C(COc1ccc(Cl)c(F)c1)NC12CC(Nc3ccn4nccc4n3)(C1)C2 [Compound 609, 2-(4-chloro-3-fluorophenoxy)-N-{3-[(pyrazolo[1,5-a]pyrimidin-5-yl)amino]bicyclo[1.1.1]pentan-1-yl}acetamide]	5.70 to 6.00
Cc1ccc2nc(C(=O)NC34CC(NC(=O)COc5ccc(Cl)c(F)c5)(C3)C4)cn2c1 [Compound 787, N-{3-[2-(4-chloro-3-fluorophenoxy)acetamido]bicyclo[1.1.1]pentan-1-yl}-6-methylimidazo[1,2-a]pyridine-2-carboxamide]	< 5.70
COCc1ccc(C(=O)NC23CC(NC(=O)COc4ccc(Cl)c(F)c4)(C2)C3)cc1 [Compound 552, N-{3-[2-(4-chloro-3-fluorophenoxy)acetamido]bicyclo[1.1.1]pentan-1-yl}-4-(methoxymethyl)benzamide]	6.60 to 7.30
CS(=O)(=O)c1cccc(C(=O)NC23CC(NC(=O)COc4ccc(Cl)c(F)c4)(C2)C3)c1 [Compound 813, N-{3-[2-(4-chloro-3-fluorophenoxy)acetamido]bicyclo[1.1.1]pentan-1-yl}-3-(methanesulfonyl)benzamide]	< 5.70
CC(C)c1oncc1C(=O)NC12CC(NC(=O)COc3ccc(Cl)c(F)c3)(C1)C2 [Compound 855, N-{3-[2-(4-chloro-3-fluorophenoxy)acetamido]bicyclo[1.1.1]pentan-1-yl}-5-(propan-2-yl)-1,2-oxazole-4-carboxamide]	< 5.70
O=C(COc1ccc(Cl)c(F)c1)NC12CC(NC(=O)c3cocn3)(C1)C2 [Compound 852, N-{3-[2-(4-chloro-3-fluorophenoxy)acetamido]bicyclo[1.1.1]pentan-1-yl}-1,3-oxazole-4-carboxamide]	5.70 to 6.00
CCc1ncc(C(=O)NC23CC(NC(=O)COc4ccc(Cl)c(Cl)c4)(C2)C3)o1 [Compound 674, N-{3-[2-(3,4-dichlorophenoxy)acetamido]bicyclo[1.1.1]pentan-1-yl}-2-ethyl-1,3-oxazole-5-carboxamide]	> 7.30
Cc1cccc(C(=O)NC23CC(NC(=O)COc4ccc(Cl)c(F)c4)(C2)C3)n1 [Compound 891, N-{3-[2-(4-chloro-3-fluorophenoxy)acetamido]bicyclo[1.1.1]pentan-1-yl}-6-methylpyridine-2-carboxamide]	6.60 to 7.30
Cc1nc2ccc(C(=O)NC34CC(NC(=O)COc5ccc(Cl)c(F)c5)(C3)C4)cc2o1 [Compound 341, N-{3-[2-(4-chloro-3-fluorophenoxy)acetamido]bicyclo[1.1.1]pentan-1-yl}-2-methyl-1,3-benzoxazole-6-carboxamide]	< 5.70
O=C(COc1ccc(Cl)c(F)c1)NC12CCC(NC(=O)c3ccc4cc(F)ccc4n3)(CC1)[C@@H](O)C2 [Compound 930, N-{(2S)-4-[2-(4-chloro-3-fluorophenoxy)acetamido]-2-hydroxybicyclo[2.2.2]octan-1-yl}-6-fluoroquinoline-2-carboxamide]	> 7.30
O=C(COc1ccc(Cl)c(F)c1)NC12CCC(Nc3cnc(C(F)(F)F)cn3)(CC1)CC2 [Compound 100, 2-(4-chloro-3-fluorophenoxy)-N-(4-{[5-(trifluoromethyl)pyrazin-2-yl]amino}bicyclo[2.2.2]octan-1-yl)acetamide]	6.00 to 6.60
Cc1cnc(C(=O)NC23CC(NC(=O)COc4ccc(Cl)c(F)c4)(C2)C3)cn1 [Compound 114, N-{3-[2-(4-chloro-3-fluorophenoxy)acetamido]bicyclo[1.1.1]pentan-1-yl}-5-methylpyrazine-2-carboxamide]	6.60 to 7.30
O=C(COc1ccc(Cl)c(F)c1)NC12CC(NC(=O)c3ccc4c(c3)OCO4)(C1)C2 [Compound 239, N-{3-[2-(4-chloro-3-fluorophenoxy)acetamido]bicyclo[1.1.1]pentan-1-yl}-2H-1,3-benzodioxole-5-carboxamide]	6.60 to 7.30
COCC(=O)Nc1ccccc1C(=O)NC12CC(NC(=O)COc3ccc(Cl)c(F)c3)(C1)C2 [Compound 887, N-{3-[2-(4-chloro-3-fluorophenoxy)acetamido]bicyclo[1.1.1]pentan-1-yl}-2-(2-methoxyacetamido)benzamide]	6.00 to 6.60

SMILES	pEC50
O=C(COc1ccc(Cl)c(F)c1)NC12CC(Nc3nc4cc(Cl)ccc4o3)(C1)C2 [Compound 369, N-{3-[(5-chloro-1,3-benzoxazol-2-yl)amino]bicyclo[1.1.1]pentan-1-yl}-2-(4-chloro-3-fluorophenoxy)acetamide]	5.70 to 6.00
Cc1cc2c(NC34CC(NC(=O)COc5ccc(OC(F)(F)F)cc5)(C3)C4)nccn2n1 [Compound 423, N-{3-[(2-methylpyrazolo[1,5-a]pyrazin-4-yl)amino]bicyclo[1.1.1]pentan-1-yl}-2-[4-(trifluoromethoxy)phenoxy]acetamide]	6.00 to 6.60
CC(C)(O)c1ccc(C(=O)NC23CC(NC(=O)COc4ccc(Cl)c(F)c4)(C2)C3)cc1 [Compound 208, N-{3-[2-(4-chloro-3-fluorophenoxy)acetamido]bicyclo[1.1.1]pentan-1-yl}-4-(2-hydroxypropan-2-yl)benzamide]	5.70 to 6.00
O=C(COc1ccc(Cl)c(F)c1)NC12CC(NC(=O)c3cccc(OC(F)F)c3)(C1)C2 [Compound 764, N-{3-[2-(4-chloro-3-fluorophenoxy)acetamido]bicyclo[1.1.1]pentan-1-yl}-3-(difluoromethoxy)benzamide]	< 5.70
Cc1cnc(C(=O)NC23CC(NC(=O)COc4ccc(Cl)c(F)c4)(C2)C3)nc1 [Compound 268, N-{3-[2-(4-chloro-3-fluorophenoxy)acetamido]bicyclo[1.1.1]pentan-1-yl}-5-methylpyrimidine-2-carboxamide]	6.60 to 7.30
O=C(COc1ccc(Cl)c(F)c1)NC12CC(NC(=O)c3ncc4ccccc4n3)(C1)C2 [Compound 749, N-{3-[2-(4-chloro-3-fluorophenoxy)acetamido]bicyclo[1.1.1]pentan-1-yl}quinazoline-2-carboxamide]	6.60 to 7.30
O=C(COc1ccc(Cl)c(F)c1)NC12CC(NC(=O)c3ccccc3)(C1)C2 [Compound 198, N-{3-[2-(4-chloro-3-fluorophenoxy)acetamido]bicyclo[1.1.1]pentan-1-yl}benzamide]	6.60 to 7.30
Cc1cc(C(=O)NC23CC(NC(=O)COc4ccc(Cl)c(F)c4)(C2)C3)sn1 [Compound 564, N-{3-[2-(4-chloro-3-fluorophenoxy)acetamido]bicyclo[1.1.1]pentan-1-yl}-3-methyl-1,2-thiazole-5-carboxamide]	6.60 to 7.30
CN(C)c1ccccc1C(=O)NC12CC(NC(=O)COc3ccc(Cl)c(F)c3)(C1)C2 [Compound 532, N-{3-[2-(4-chloro-3-fluorophenoxy)acetamido]bicyclo[1.1.1]pentan-1-yl}-2-(dimethylamino)benzamide]	< 5.70
Cc1nc(C(=O)NC23CCC(NC(=O)COc4ccc(Cl)c(F)c4)(CC2)[C@@H](O)C3)cs1 [Compound 572, N-{(3S)-4-[2-(4-chloro-3-fluorophenoxy)acetamido]-3-hydroxybicyclo[2.2.2]octan-1-yl}-2-methyl-1,3-thiazole-4-carboxamide]	6.60 to 7.30
O=C(COc1ccc(Cl)c(F)c1)NC12CC(NC(=O)c3ccn[nH]3)(C1)C2 [Compound 320, N-{3-[2-(4-chloro-3-fluorophenoxy)acetamido]bicyclo[1.1.1]pentan-1-yl}-1H-pyrazole-5-carboxamide]	5.70 to 6.00
O=C(COc1ccc(Cl)c(F)c1)NC12CC(NC(=O)c3ccnnc3)(C1)C2 [Compound 762, N-{3-[2-(4-chloro-3-fluorophenoxy)acetamido]bicyclo[1.1.1]pentan-1-yl}pyridazine-4-carboxamide]	< 5.70
O=C(COc1ccc(F)c(F)c1)NC12CC(NC(=O)c3ccc(OC(F)(F)F)nc3)(C1)C2 [Compound 277, N-{3-[2-(3,4-difluorophenoxy)acetamido]bicyclo[1.1.1]pentan-1-yl}-6-(trifluoromethoxy)pyridine-3-carboxamide]	5.70 to 6.00
O=C(COc1ccc(Cl)cc1)NC12CC(Nc3nnc(-c4ccc(Cl)cc4)o3)(C1)C2 [Compound 264, 2-(4-chlorophenoxy)-N-(3-{[5-(4-chlorophenyl)-1,3,4-oxadiazol-2-yl]amino}bicyclo[1.1.1]pentan-1-yl)acetamide]	6.00 to 6.60
Cc1cc(C(=O)NC23CCC(NC(=O)COc4ccc(Cl)c(F)c4)(CC2)C(=O)C3)on1 [Compound 630, N-{4-[2-(4-chloro-3-fluorophenoxy)acetamido]-3-oxobicyclo[2.2.2]octan-1-yl}-3-methyl-1,2-oxazole-5-carboxamide]	6.00 to 6.60
O=C(COc1ccc(Cl)c(F)c1)NC12CC(NC(=O)c3coc(C(F)(F)F)c3)(C1)C2 [Compound 544, N-{3-[2-(4-chloro-3-fluorophenoxy)acetamido]bicyclo[1.1.1]pentan-1-yl}-5-(trifluoromethyl)furan-3-carboxamide]	> 7.30

— US10913727B2, “Modulators of the integrated stress pathway” (Calico Life Sciences LLC, priority 2016, dated 2021)
